Molecular target: Glutamate NMDA receptor; Grin1/Grin2c (Rattus norvegicus) (UniProt P35439+Q00961)
Test: Modulation of recombinant rat GluN1/GluN2C expressed in Xenopus laevis oocytes assessed as potentiation of glycine/glutamate-induced current by measuring receptor response at 100 uM by two-electrode voltage-clamp method relative to control
Type: cell-based

Activity [%] | SMILES
84 | COC(=O)c1ccc(C2C(C(=O)c3ccncc3)=C(O)C(=O)N2CCc2c[nH]cn2)cc1 (configuration not stated)
97 | COC(=O)c1ccc(C2C(C(=O)c3ccncc3)=C(O)C(=O)N2CCc2ccncc2)cc1 (configuration not stated)

Reference: ChEMBL document CHEMBL3879913, “NMDA receptor modulators and uses related thereto” (2014)
